Where two headings read alike, the source gives them in different places.
What was measured:
A. calcoaceticus = type: cell-based
E. cloacae = type: cell-based; settings: E. cloacae strain ECL007
E. coli = type: cell-based; settings: for Peptide MIC values: agarose dilution
E. faecalis = type: cell-based
E. faecium = type: cell-based
K. pneumoniae = type: cell-based
P. aeruginosa = type: cell-based; settings: for Peptide MIC values: agarose dilution
S. aureus = type: cell-based; settings: for Peptide MIC values: agarose dilution
S. epidermidis = type: cell-based
S. maltophilia = type: cell-based
S. marcescens = type: cell-based
S. pneumoniae = assay: Agarose dilution assay (MIC); type: cell-based; settings: agarose dilution
[1] = tested on: microorganisms with acquired resistance; assay: microbe, parasite or virus in culture; type: cell-based; settings: S. aureus; combination with Mupirocin; in µg/mL
[2] = tested on: MSSA (Smith, ATCC # 19640); assay: In vivo efficacy, MSSA infection; parameters: species or system S. aureus; settings: formulation D, 60 min post-infection, end of eight day observation

Sequence	MIC (A. calcoaceticus; A. calcoaceticus strain AC002)	MIC (E. cloacae)	MIC (E. coli; E. coli strain ECO002)	MIC (E. faecalis; E. faecalis strain EFS002)	MIC (E. faecium; E. faecium strain EFM001)	MIC (K. pneumoniae; K. pneumoniae strain KP002)	MIC (S. epidermidis; S. epidermidis strain SE010)	MIC (S. maltophilia; S. maltophilia strain SMA001)	MIC (S. marcescens; S. marcescens strain SMS004)	MIC (E. coli; E. coli strain ECO003)	MIC (K. pneumoniae; K. pneumoniae strain KP001)	MIC (P. aeruginosa; P. aeruginosa strain PA003)	MIC (S. epidermidis; S. epidermidis strain SE002)	MIC (S. maltophilia; S. maltophilia strain SMA002)	MIC (E. faecium; E. faecium strain EFM003)	MIC (P. aeruginosa; P. aeruginosa strain PA004)	MIC (S. marcescens; S. marcescens strain SMS003)	MIC (A. calcoaceticus; A. calcoaceticus strain AC001)	further results
ILKKWPWWPWRRK [MBI 11E2CN]	4 µg/mL	>128 µg/mL	8 µg/mL	32 µg/mL	16 µg/mL	64 µg/mL	4 µg/mL	64 µg/mL	>128 µg/mL										MIC (P. aeruginosa; P. aeruginosa strain PA001): >128 µg/mL; MIC (S. aureus; S. aureus strain SA016): 2 µg/mL
ILKKWPWWWRRK [MBI 11G5CN]	4 µg/mL	>128 µg/mL		16 µg/mL					>128 µg/mL	16 µg/mL	>128 µg/mL	>128 µg/mL	2 µg/mL	64 µg/mL					MIC (E. faecium; E. faecium strain EFM002): 8 µg/mL; MIC (S. aureus; S. aureus strain SA012): 4 µg/mL
ILKKWVWWVWRRK [MBI 11F1CN]		>128 µg/mL				32 µg/mL				8 µg/mL					2 µg/mL	64 µg/mL	>128 µg/mL		Peptide MIC values (E. coli; E. coli ATCC 25922): 8 µg/mL; Peptide MIC values (E. coli; E. coli NCTC 10418): 2 µg/mL; MIC (E. faecalis; E. faecalis strain EFS004): 16 µg/mL; Peptide MIC values (E. faecium; agarose dilution): 8 µg/mL; Peptide MIC values (P. aeruginosa; P. aeruginosa ATCC 27853): 64 µg/mL; Peptide MIC values (P. aeruginosa; P. aeruginosa NCTC 10662): 64 µg/mL; MIC (S. aureus; S. aureus strain SA009): 2 µg/mL; Peptide MIC values (S. aureus; S. aureus MRSA9): 2 µg/mL; Peptide MIC values (S. aureus; S. aureus MRSA13): 16 µg/mL; Peptide MIC values (S. aureus; S. aureus MRSA17): 2 µg/mL; MIC (S. marcescens; S. marcescens strain SBSM1): >128 µg/mL; Peptide MIC values (S. marcescens; agarose dilution, S. marcescens SM82): >128 µg/mL; Peptide MIC values (S. pneumoniae; S. pneumoniae 406LE8): 128 µg/mL; Peptide MIC values (S. pneumoniae; S. pneumoniae 60120): 128 µg/mL; Peptide MIC values (S. pneumoniae; S. pneumoniae ATCC 49619): 64 µg/mL; Peptide MIC [1]: 8
ILKKWWWPWRRK [MBI 11G4CN]	4 µg/mL	>128 µg/mL		32 µg/mL			2 µg/mL				>128 µg/mL			64 µg/mL	1 µg/mL	>128 µg/mL	>128 µg/mL		MIC (E. coli; E. coli strain ECO005): 32 µg/mL; MIC (S. aureus; S. aureus strain SA004): 1 µg/mL; % Survival ([2]; 12 mg/kg ip): 0%; % Survival ([2]; 18 mg/kg ip): 0%; % Survival ([2]; 24 mg/kg ip): 20%
ILKNPNNPWRR [MBI 11G7ACN]	4 µg/mL	>32 µg/mL	16 µg/mL		8 µg/mL	>32 µg/mL		32 µg/mL	>32 µg/mL				4 µg/mL						MIC (E. faecalis; E. faecalis strain EFS008): 32 µg/mL; MIC (P. aeruginosa; P. aeruginosa strain PA006): >32 µg/mL; MIC (S. aureus; S. aureus strain SA010): 1 µg/mL
ILKWPWWPWRK [MBI 11B5CN]	4 µg/mL	>128 µg/mL		16 µg/mL			1 µg/mL				16 µg/mL			64 µg/mL		>128 µg/mL	>128 µg/mL		MIC (E. coli; E. coli strain ECO005): 16 µg/mL; MIC (E. faecalis; E. faecalis strain EFS001): 2 µg/mL; MIC (E. faecalis; E. faecalis strain EFS008): 8 µg/mL; MIC (E. faecium; E. faecium strain EFM002): 1 µg/mL; MIC (S. aureus; S. aureus strain SA005): 2 µg/mL; MIC (S. aureus; S. aureus strain SA014): 2 µg/mL; MIC (S. aureus; S. aureus strain SA093): 1 µg/mL
ILRRWPWWPWRRR [MBI 11B9ACN]		>128 µg/mL			4 µg/mL	32 µg/mL		16 µg/mL	>128 µg/mL	8 µg/mL			2 µg/mL					32 µg/mL	MIC (E. faecalis; E. faecalis strain EFS004): 8 µg/mL; MIC (P. aeruginosa; P. aeruginosa strain PA005): >128 µg/mL; MIC (S. aureus; S. aureus strain SA019): 2 µg/mL
LKKWPWWPWRRK [MBI 11D1CN]		>128 µg/mL	16 µg/mL	32 µg/mL	16 µg/mL	64 µg/mL	8 µg/mL	64 µg/mL				>128 µg/mL					>128 µg/mL	>128 µg/mL	MIC (S. aureus; S. aureus strain SA004): 2 µg/mL
WWKKWPWWPWRRK [MBI 11C5CN]		>128 µg/mL		16 µg/mL		16 µg/mL			>128 µg/mL			64 µg/mL	2 µg/mL	16 µg/mL	2 µg/mL			32 µg/mL	MIC (E. coli; E. coli strain ECO001): 8 µg/mL; MIC (S. aureus; S. aureus strain SA009): 2 µg/mL

— patent publication US20020035061A1, “COMPOSITIONS AND METHODS FOR TREATING INFECTIONS USING CATIONIC PEPTIDES ALONE OR IN COMBINATION WITH ANTIBIOTICS” (priority 1996, published 2002)
